Reference: publication PMC6743335 (Journal of the American Chemical Society, 2018)

Biological target: T1, human ATR (adenosyltransferase) (Homo sapiens, UniProt Q96EY8)
T1 sequence (Q96EY8 33-250 limits assumed): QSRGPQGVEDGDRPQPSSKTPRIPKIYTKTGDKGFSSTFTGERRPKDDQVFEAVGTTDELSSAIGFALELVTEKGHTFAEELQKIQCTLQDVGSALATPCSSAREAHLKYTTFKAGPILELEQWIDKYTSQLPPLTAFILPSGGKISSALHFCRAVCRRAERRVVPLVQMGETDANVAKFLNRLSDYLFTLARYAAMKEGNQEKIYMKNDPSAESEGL
Test: binding, method in supplement
Settings: ATP in the third site of the crystal with Mg

Compound: Nc1ncnc2c1ncn2[C@@H]1O[C@H](COP(=O)(O)OP(=O)(O)OP(=O)(O)O)[C@@H](O)[C@H]1O [ATP]
- Kd: Electron density for AdoCbl was observed in two active sites
